The source of these data is PMC10061512 (ACS Omega, 2023).

One experiment concerns the target hBACE-1 (Homo sapiens, UniProt P56817). Briefly: biochemical.
A further experiment addresses eqBChE (Equus caballus, UniProt P81908). As to the kind of experiment: BChE inhibition and enzyme kinetics, Ellman assay. The experiment is classed as biochemical, equine.
The next experiment deals with EeAChE (Electrophorus electricus, UniProt O42275). Briefly: AChE inhibition and enzyme kinetics, Ellman assay. It is filed as biochemical, electric eel. The note with it: IC50 (μM) ± SD EeAChE, Ellman assay. (In Ellman's method for cholinesterases, released thiocholine reacts with DTNB.)
Chain of EeAChE (O42275 24-633): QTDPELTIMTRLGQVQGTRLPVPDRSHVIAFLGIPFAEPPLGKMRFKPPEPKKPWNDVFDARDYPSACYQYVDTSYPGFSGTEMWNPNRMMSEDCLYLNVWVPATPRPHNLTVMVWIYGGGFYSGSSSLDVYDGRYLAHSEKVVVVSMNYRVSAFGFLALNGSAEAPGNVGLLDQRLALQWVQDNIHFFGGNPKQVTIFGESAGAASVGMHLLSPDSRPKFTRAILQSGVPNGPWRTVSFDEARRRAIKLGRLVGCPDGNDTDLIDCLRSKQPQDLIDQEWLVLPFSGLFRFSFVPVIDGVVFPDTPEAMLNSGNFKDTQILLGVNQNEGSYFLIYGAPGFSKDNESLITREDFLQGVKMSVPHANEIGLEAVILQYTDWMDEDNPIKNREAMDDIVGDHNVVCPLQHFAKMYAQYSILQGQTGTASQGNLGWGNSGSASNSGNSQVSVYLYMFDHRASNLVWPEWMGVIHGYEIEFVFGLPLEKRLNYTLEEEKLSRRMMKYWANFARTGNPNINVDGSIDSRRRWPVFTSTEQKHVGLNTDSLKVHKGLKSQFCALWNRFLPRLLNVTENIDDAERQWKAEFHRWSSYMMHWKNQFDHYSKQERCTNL

Molecules are shown by their SMILES. “And” between values parts separate entries of the source, which are not always exact repeats. Equal entries are not always repeated.

Chain of eqBChE (P81908 whole entry): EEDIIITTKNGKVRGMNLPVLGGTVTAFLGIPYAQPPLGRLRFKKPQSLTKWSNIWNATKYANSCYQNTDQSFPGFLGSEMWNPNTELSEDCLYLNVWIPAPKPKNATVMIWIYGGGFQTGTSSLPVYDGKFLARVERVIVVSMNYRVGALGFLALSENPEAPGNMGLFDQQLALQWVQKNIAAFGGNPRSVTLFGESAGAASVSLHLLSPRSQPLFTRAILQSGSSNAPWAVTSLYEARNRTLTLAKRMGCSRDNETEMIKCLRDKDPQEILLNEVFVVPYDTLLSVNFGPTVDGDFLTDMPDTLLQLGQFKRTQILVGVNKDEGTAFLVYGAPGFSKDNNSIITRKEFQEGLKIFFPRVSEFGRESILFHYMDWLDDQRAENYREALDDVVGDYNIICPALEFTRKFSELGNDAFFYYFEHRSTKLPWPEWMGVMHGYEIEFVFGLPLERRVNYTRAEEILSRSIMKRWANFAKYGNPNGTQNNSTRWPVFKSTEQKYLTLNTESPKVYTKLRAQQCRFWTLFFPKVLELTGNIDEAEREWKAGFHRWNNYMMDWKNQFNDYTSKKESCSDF
Chain of hBACE-1 (P56817 46-501): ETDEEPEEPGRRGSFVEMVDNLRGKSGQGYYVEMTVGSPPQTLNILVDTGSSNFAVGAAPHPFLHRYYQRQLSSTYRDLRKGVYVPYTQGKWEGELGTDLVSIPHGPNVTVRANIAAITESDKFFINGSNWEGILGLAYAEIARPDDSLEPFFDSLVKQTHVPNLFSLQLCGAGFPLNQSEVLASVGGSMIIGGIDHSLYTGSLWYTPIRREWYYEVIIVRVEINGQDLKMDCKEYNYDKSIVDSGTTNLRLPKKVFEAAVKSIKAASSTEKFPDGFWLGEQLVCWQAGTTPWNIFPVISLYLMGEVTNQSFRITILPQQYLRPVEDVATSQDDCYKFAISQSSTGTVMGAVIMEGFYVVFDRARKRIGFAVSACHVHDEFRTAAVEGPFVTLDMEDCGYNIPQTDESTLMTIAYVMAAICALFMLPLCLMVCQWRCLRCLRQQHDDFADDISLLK

Turning to `O=c1cc(OCc2cn(Cc3ccccc3)nn2)c2ccccc2o1` [8a, 4-((1-Benzyl-1H-1,2,3-triazol-4-yl)methoxy)-2H-chromen-2-one], the half-inhibitory concentration (IC50) on hBACE-1 amounted to 72.9 ± 2.4 µM; against eqBChE, 212 ± 2.55 µM; at EeAChE it was 151 ± 3.14 µM.

Take `O=c1cc(OCc2cn(Cc3ccccc3Cl)nn2)c2ccccc2o1` [8b, 4-((1-(2-Chlorobenzyl)-1H-1,2,3-triazol-4-yl)methoxy)-2H-chromen-2-one]: the concentration for half-maximal inhibition (IC50) came out at 186.6 ± 1.21 µM on hBACE-1, 42.2 ± 0.78 µM against eqBChE and 68.7 ± 0.71 µM against EeAChE.

Consider `O=c1cc(OCc2cn(Cc3cccc(Cl)c3)nn2)c2ccccc2o1` [8c, 4-((1-(3-Chlorobenzyl)-1H-1,2,3-triazol-4-yl)methoxy)-2H-chromen-2-one], for which the half-maximal inhibitory concentration (IC50) at hBACE-1 turned out to be 24.8 ± 1.49 µM; at eqBChE, 61.9 ± 3.66 µM; on EeAChE, 62.6 ± 2.4 µM.

As to `O=c1cc(OCc2cn(Cc3c(Cl)cccc3Cl)nn2)c2ccccc2o1` [8d, 4-((1-(2,6-Dichlorobenzyl)-1H-1,2,3-triazol-4-yl)methoxy)-2H-chromen-2-one], the figures for the half-inhibitory concentration (IC50) at hBACE-1, against eqBChE and against EeAChE were 106 ± 1.38 µM, 40.3 ± 0.93 µM and 59.4 ± 2.71 µM, respectively.

`O=c1cc(OCc2cn(Cc3ccccc3F)nn2)c2ccccc2o1` [8e, 4-((1-(2-Fluorobenzyl)-1H-1,2,3-triazol-4-yl)methoxy)-2H-chromen-2-one]: the results for the IC50 at hBACE-1, against eqBChE and against EeAChE were 111.2 ± 0.63 µM, 62.3 ± 1.2 µM and 89.2 ± 1.88 µM, respectively.

For `O=c1cc(OCc2cn(Cc3cccc(F)c3)nn2)c2ccccc2o1` [8f, 4-((1-(3-Fluorobenzyl)-1H-1,2,3-triazol-4-yl)methoxy)-2H-chromen-2-one], the IC50 against hBACE-1 was 22.3 ± 1.54 µM; on eqBChE, 236 ± 3.6 µM; on EeAChE, 232.8 ± 2.31 µM.

In the case of `O=c1cc(OCc2cn(Cc3ccc(F)cc3)nn2)c2ccccc2o1` [8g, 4-((1-(4-Fluorobenzyl)-1H-1,2,3-triazol-4-yl)methoxy)-2H-chromen-2-one], the IC50 against hBACE-1 was determined as 24.2 ± 1.98 µM; at eqBChE it was 249 ± 3.1 µM; against EeAChE it was 194 ± 2.19 µM.

Regarding `O=c1cc(OCc2cn(Cc3c(F)cccc3F)nn2)c2ccccc2o1` [8h, 4-((1-(2,6-Difluorobenzyl)-1H-1,2,3-triazol-4-yl)methoxy)-2H-chromen-2-one], the IC50 at hBACE-1 worked out at 135 ± 1.9 µM; at eqBChE, 66.7 ± 1.37 µM; against EeAChE it was 73.89 ± 0.63 µM.

In the case of `O=c1cc(OCc2cn(Cc3ccccc3C(F)(F)F)nn2)c2ccccc2o1` [8i, 4-((1-(2-(Trifluoromethyl)benzyl)-1H-1,2,3-triazol-4-yl)methoxy)-2H-chromen-2-one], the concentration for half-maximal inhibition (IC50) against hBACE-1 stood at 10.2 ± 0.79 µM; at eqBChE it was 7.04 ± 0.77 µM; at EeAChE it was 4.83 ± 0.11 µM.

`O=c1cc(OCc2cn(Cc3ccc(C(F)(F)F)cc3)nn2)c2ccccc2o1` [8j, 4-((1-(4-(Trifluoromethyl)benzyl)-1H-1,2,3-triazol-4-yl)methoxy)-2H-chromen-2-one]: the IC50 is 19.5 ± 0.66 µM against hBACE-1, 209 ± 2.11 µM against eqBChE and 23.3 ± 2.86 µM on EeAChE.

On to `O=c1cc(OCc2cn(Cc3ccccc3OC(F)(F)F)nn2)c2ccccc2o1` [8k, 4-((1-(2-(Trifluoromethoxy)benzyl)-1H-1,2,3-triazol-4-yl)methoxy)-2H-chromen-2-one], for which the IC50 against hBACE-1 came out at 18 ± 1.59 µM; at eqBChE, 9.95 ± 0.89 µM; against EeAChE, 9.13 ± 0.73 µM.

Turning to `O=c1cc(OCc2cn(Cc3ccc(OC(F)(F)F)cc3)nn2)c2ccccc2o1` [8l, 4-((1-(4-(Trifluoromethoxy)benzyl)-1H-1,2,3-triazol-4-yl)methoxy)-2H-chromen-2-one], the values for the half-maximal inhibitory concentration (IC50) against hBACE-1, on eqBChE and at EeAChE were 132.9 ± 1.08 µM, 158 ± 1.98 µM and 45.4 ± 1.4 µM, respectively.

Regarding `Cc1ccccc1Cn1cc(COc2cc(=O)oc3ccccc23)nn1` [8m, 4-((1-(2-Methylbenzyl)-1H-1,2,3-triazol-4-yl)methoxy)-2H-chromen-2-one], the 50% inhibitory concentration (IC50) came to 162 ± 1.85 µM on hBACE-1, 172 ± 1.98 µM against eqBChE and 210.7 ± 1.83 µM on EeAChE.

On to `COc1cccc(Cn2cc(COc3cc(=O)oc4ccccc34)nn2)c1` [8n, 4-((1-(3-Methoxybenzyl)-1H-1,2,3-triazol-4-yl)methoxy)-2H-chromen-2-one], for which the 50% inhibitory concentration (IC50) is 126 ± 4.18 µM against hBACE-1, 140 ± 6.25 µM at eqBChE and 11.4 ± 1.16 µM on EeAChE.

As for `COc1cc(Cn2cc(COc3cc(=O)oc4ccccc34)nn2)cc(OC)c1` [8o, 4-((1-(3,5-Dimethoxybenzyl)-1H-1,2,3-triazol-4-yl)methoxy)-2H-chromen-2-one], the values for the IC50 against hBACE-1, against eqBChE and at EeAChE were 9.79 ± 1.36 µM, 3.3 ± 0.01 µM and 2.76 ± 0.04 µM, respectively.

For the compound `O=c1cc(OCc2cn(Cc3ccc([N+](=O)[O-])cc3)nn2)c2ccccc2o1` [8p, 4-((1-(4-Nitrobenzyl)-1H-1,2,3-triazol-4-yl)methoxy)-2H-chromen-2-one], the half-inhibitory concentration (IC50) at hBACE-1 stood at 156 ± 1.09 µM; against eqBChE, 220 ± 3.04 µM; against EeAChE it was 200.4 ± 0.85 µM.

`COc1cccc(Cn2cc(COc3ccc4ccc(=O)oc4c3C(C)=O)nn2)c1` [10a, 8-Acetyl-7-((1-(3-methoxybenzyl)-1H-1,2,3-triazol-4-yl)methoxy)-2H-chromen-2-one]: the IC50 against hBACE-1 came out at 119 ± 2.49 µM; on eqBChE it was 7.4 ± 0.94 µM; against EeAChE, 8.36 ± 1.29 µM.

`CC(=O)c1c(OCc2cn(Cc3ccccc3C(F)(F)F)nn2)ccc2ccc(=O)oc12` [10c, 8-Acetyl-7-((1-(2-(trifluoromethyl)benzyl)-1H-1,2,3-triazol-4-yl)methoxy)-2H-chromen-2-one]: the results for the half-maximal inhibitory concentration (IC50) against hBACE-1, against eqBChE and against EeAChE were 139 ± 1.47 µM, 44.6 ± 1.84 µM and 173 ± 1.89 µM, respectively.

`CC(=O)c1c(OCc2cn(Cc3ccccc3OC(F)(F)F)nn2)ccc2ccc(=O)oc12` [10d, 8-Acetyl-7-((1-(2-(trifluoromethoxy)benzyl)-1H-1,2,3-triazol-4-yl)methoxy)-2H-chromen-2-one]: the results for the IC50 against hBACE-1, on eqBChE and against EeAChE were 142 ± 1.59 µM, 170 ± 1.76 µM and 139 ± 1.64 µM, respectively.

With `COc1cccc(Cn2cc(COc3cc4oc(=O)cc(C)c4cc3OCc3cn(Cc4cccc(OC)c4)nn3)nn2)c1` [13a, 6,7-Bis((1-(3-methoxybenzyl)-1H-1,2,3-triazol-4-yl)methoxy)-4-methyl-2H-chromen-2-one], the half-maximal inhibitory concentration (IC50) was found to be 129 ± 1.49 µM at hBACE-1, 51.7 ± 1.42 µM on eqBChE and 130.7 ± 0.45 µM at EeAChE.

Consider `COc1cc(Cn2cc(COc3cc4oc(=O)cc(C)c4cc3OCc3cn(Cc4cc(OC)cc(OC)c4)nn3)nn2)cc(OC)c1` [13b, 6,7-Bis((1-(3,5-dimethoxybenzyl)-1H-1,2,3-triazol-4-yl)methoxy)-4-methyl-2H-chromen-2-one], for which the concentration for half-maximal inhibition (IC50) against hBACE-1 is 115 ± 3.86 µM; on eqBChE it was 4.7 ± 0.67 µM; against EeAChE, 168 ± 6.7 µM.

As for `Cc1cc(=O)oc2cc(OCc3cn(Cc4ccccc4C(F)(F)F)nn3)c(OCc3cn(Cc4ccccc4C(F)(F)F)nn3)cc12` [13c, 4-Methyl-6,7-bis((1-(2-(trifluoromethyl)benzyl)-1H-1,2,3-triazol-4-yl)methoxy)-2H-chromen-2-one], the IC50 on hBACE-1 was found to be 139.4 ± 1 µM; against eqBChE, 82.5 ± 1.41 µM; against EeAChE it was 154.7 ± 1.42 µM.

As for `Cc1cc(=O)oc2cc(OCc3cn(Cc4ccccc4OC(F)(F)F)nn3)c(OCc3cn(Cc4ccccc4OC(F)(F)F)nn3)cc12` [13d, 4-Methyl-6,7-bis((1-(2-(trifluoromethoxy)benzyl)-1H-1,2,3-triazol-4-yl)methoxy)-2H-chromen-2-one], the results for the IC50 at hBACE-1 and on EeAChE were 20.7 ± 0.93 µM and 176 ± 10.2 µM, respectively.

Regarding `COc1cccc(Cn2cc(COc3cc4oc(=O)cc(C)c4cc3OC)nn2)c1` [16a, 6-Methoxy-7-((1-(3-methoxybenzyl)-1H-1,2,3-triazol-4-yl)methoxy)-4-methyl-2H-chromen-2-one], the half-inhibitory concentration (IC50) on hBACE-1 turned out to be 138.4 ± 1.02 µM; against eqBChE, 95.8 ± 1.12 µM; on EeAChE it was 164 ± 1.84 µM.

Consider `COc1cc(Cn2cc(COc3cc4oc(=O)cc(C)c4cc3OC)nn2)cc(OC)c1` [16b, 7-((1-(3,5-Dimethoxybenzyl)-1H-1,2,3-triazol-4-yl)methoxy)-6-methoxy-4-methyl-2H-chromen-2-one], for which the values for the IC50 on hBACE-1, on eqBChE and at EeAChE were 9.06 ± 0.88 µM, 191.2 ± 1.13 µM and 151 ± 5.05 µM, respectively.

On to `COc1cc2c(C)cc(=O)oc2cc1OCc1cn(Cc2ccccc2C(F)(F)F)nn1` [16c, 6-Methoxy-4-methyl-7-((1-(2-(trifluoromethyl)benzyl)-1H-1,2,3-triazol-4-yl)methoxy)-2H-chromen-2-one], for which the IC50 against hBACE-1 is 156.1 ± 1.42 µM; on eqBChE, 57.5 ± 1.42 µM; against EeAChE, 141.7 ± 0.89 µM.

As for `COc1cc2c(C)cc(=O)oc2cc1OCc1cn(Cc2ccccc2OC(F)(F)F)nn1` [16d, 6-Methoxy-4-methyl-7-((1-(2-(trifluoromethoxy)benzyl)-1H-1,2,3-triazol-4-yl)methoxy)-2H-chromen-2-one], the values for the IC50 at hBACE-1, at eqBChE and against EeAChE were 167.6 ± 1.4 µM, 141 ± 0.6 µM and 167 ± 2.45 µM, respectively.

As for `COc1cccc(Cn2cc(COc3ccc4ccc(=O)oc4c3)nn2)c1` [19a, 7-((1-(3-Methoxybenzyl)-1H-1,2,3-triazol-4-yl)methoxy)-2H-chromen-2-one], the IC50 against hBACE-1 was 126 ± 3.92 µM; against eqBChE, 2.8 ± 0.22 µM; at EeAChE, 3.6 µM and 3.62 µM.

Consider `COc1cc(Cn2cc(COc3ccc4ccc(=O)oc4c3)nn2)cc(OC)c1` [19b, 7-((1-(3,5-Dimethoxybenzyl)-1H-1,2,3-triazol-4-yl)methoxy)-2H-chromen-2-one], for which the 50% inhibitory concentration (IC50) against hBACE-1 worked out at 132 ± 2.02 µM; against eqBChE, 63.2 ± 2.44 µM; against EeAChE it was 59.7 ± 0.62 µM.

As for `O=c1ccc2ccc(OCc3cn(Cc4ccccc4C(F)(F)F)nn3)cc2o1` [19c, 7-((1-(2-(Trifluoromethyl)benzyl)-1H-1,2,3-triazol-4-yl)methoxy)-2H-chromen-2-one], the IC50 turned out to be 17.7 ± 0.65 µM at hBACE-1, 77.3 ± 6.38 µM on eqBChE and 20.6 ± 0.95 µM on EeAChE.

Regarding `O=c1ccc2ccc(O)cc2o1` [compound 17, 7-hydroxycoumarin], at hBACE-1, the IC50 was 175 ± 4.37 µM.

Consider `C[n+]1c2ccccc2cc2[n-]c3ccccc3c21` [cryptolepine, reference compound], for which the results for the half-maximal inhibitory concentration (IC50) against eqBChE and at EeAChE were 0.61 ± 0.3 µM and 0.33 ± 0.2 µM, respectively.

The term IC50 denotes the concentration needed to halve the response being measured. The low end stands for greater potency, the high end for weaker potency.
